In patent US20040253256A1, “Biological compositions and methods for treatment of prostate cancer” (priority 2003, published 2004):
Read-outs that look alike come from different tables or passages of the source.

Experiments:
human prostate cancer [1] = conditions: for Number of live animals remaining in the groups after 30 days of treatment: 30 mice per group, 2CTX 45 mg/kg/day s.c.
From the text: (§1) The animals used to generate the prostate cancer cells for the experiments were male nude mouse (obtainable from the Chinese Academy of Military Medical Sciences, Beijing, China) with an average weight of about 15 to 18 gram. Fresh prostate tumor cells (obtainable from the Cancer Institute, Chinese Academy of Medical Sciences, Beijing, China) were divided into sections of size 1-2 mm^3 and immediately stored in […] suspension after removal from the human patient.
The mouse were starved for 24 hours before the surgery. The animals were generally anaesthetized. The barbiturates was first diluted in saline and then injected at 0.3 to 0.4 ml per animal, or 30 mg per kg body weight, into the abdomen of the mice. Under sterile conditions, a 1 cm long opening in the body cavity was cut along the right rib of the mice for engraftment of the tumor. About 10^6 units of tumor cells (about 2 mg tumor pieces per ml culture medium) were transplanted. Afterwards, the opening was sutured and the mice were put back into the cage. The animals were allowed to grow for three to five weeks or when the tumor grows to about 1 to 2 cm^3 in size. […] The tumor was removed from a donor rat and minced aseptically in 4 ml of Hank's solution to form a cell suspension. About 10^6 units of tumor cells (about 0.2 ml cell suspension) were transplanted into a healthy batch of nude mice.
The survival time of mice after tumor injection and treatment was studied.
The biological composition comprising 10^8 cells per ml of activated and conditioned yeast cells of the strain Saccharomyces carlsbergensis Hansen strain AS2.440 was prepared by the methods described in Section 5.1 and subsections therein
The animals were prepared in a similar manner as described in Section 6.1.
The mice injected with tumor cells were kept for 2 weeks and then were divided into 4 experimental groups of ten mice per group and one control group. The four experimental groups were triplicated (i.e., using a total of 120 mice in the experimental groups). In group 2AY, the mice received 0.5 ml of the biological composition once per day. In group 2NY, the mice received 0.5 ml of the untreated yeast cells once per day. In group 2CTX, the mice were injected subcutaneously with 45 mg of cyclophosphamide (CTX) per kg body weight per day. In group 2CK1, the mice received 0.5 ml of physiological saline once per day.
The mice received the biological compositions, untreated yeast cells, CTX or saline on the same day as the tumor cells were transplanted. The mice in group 2CK2 also started receiving saline on the same day as the other four groups. The biological compositions, untreated yeast cells and saline were administered orally by a feeding tube and the CTX by subcutaneous injection for 30 consecutive days. The mice were observed over 6 months from the day of tumor inoculation and survival was recorded. The weight of the mice and the weight of the tumor were determined by standard techniques.

human prostate cancer [2] = conditions: 31st day from tumor inoculation; 30 consecutive days; AY/NY 0.3 ml oral once per day, CTX 30 mg/kg/day s.c.
From the text: as §1
The mouse were starved for 24 hours before the surgery. The animals were generally anaesthetized. The barbiturates was first diluted in saline and then injected at 0.3 to 0.4 ml per animal, or 30 mg per kg body weight, into the abdomen of the mice. Under sterile conditions, a 1 cm long opening in the body cavity was cut along the right rib of the mice for engraftment of the tumor. About 10^6 units of tumor cells (about 2 mg tumor pieces per ml culture medium) were transplanted. Afterwards, the opening was sutured and the mice were put back into the cage. The animals were allowed to grow for three to five weeks or when the tumor grows to about 1 to 2 cm^3 in size. […]
The mice received the biological compositions, untreated yeast cells, CTX or saline on the same day as the tumor cells were transplanted. […] The weight of the mice and the weight of the tumor were determined by standard techniques.

human prostate cancer [3] = assay: Example 7: survival time in nude mouse model of human prostate cancer (thiotepa comparator); type: in vivo; conditions: for Number of live animals remaining in the groups after 30 days of treatment: 30 mice per group
Method: (§2) The animals were generally anaesthetized.
In group 2TSPA, the mice were injected intravenously with 2.2 mg of thiotepa (TSPA) per kg body weight per day.

human prostate cancer [4] = assay: Example 6: tumor growth in nude mouse model of human prostate cancer (thiotepa comparator); type: in vivo; conditions: 31st day from tumor inoculation; 30 consecutive days; AY/NY 0.3 ml oral once per day, TSPA 1.5 mg/kg/day i.v.
Method: The human prostate cancer sample was carefully selected before, during, and after surgery in order to ensure transplant occurred at the equivalent position in the mouse. The prostate cancer sample was obtained from patients who have not received any radiation, chemotherapy, or immune enhancement treatment.
as §2
In group TSPA, the mice were injected intravenously with 1.5 mg of thiotepa (TSPA) per kg body weight per day.

[5] = mice that survived the 6 months observation, 2AY/2NY 0.5 ml oral daily, CTX 45 mg/kg/day s.c., 30 days
[6] = mice that survived the 6 months observation, 2AY/2NY 0.5 ml oral daily, 2TSPA 2.2 mg/kg/day i.v., 30 days

Structure (SMILES): O=P1(N(CCCl)CCCl)NCCCO1 (stereo not drawn) [CTX, cyclophosphamide]
- Number of live animals remaining in the groups after 30 days of treatment (human prostate cancer [1]; 0 month after cessation of treatment, 2AY/2NY 0.5 ml oral daily): 30
- Number of live animals remaining in the groups after 30 days of treatment (human prostate cancer [1]; 1 month after cessation of treatment, 2AY/2NY 0.5 ml oral daily): 30
- survival after six months from injection of tumor cells (human prostate cancer [1]; 2NY 0.5 ml per day, 2CTX 45 mg/kg per day, 30 days): all died
- Number of live animals remaining in the groups after 30 days of treatment (human prostate cancer [1]; 2 months after cessation of treatment, 2AY/2NY 0.5 ml oral daily): 30
- Number of live animals remaining in the groups after 30 days of treatment (human prostate cancer [1]; 3 months after cessation of treatment, 2AY/2NY 0.5 ml oral daily): 27
- Number of live animals remaining in the groups after 30 days of treatment (human prostate cancer [1]; 4 months after cessation of treatment, 2AY/2NY 0.5 ml oral daily): 22
- Number of live animals remaining in the groups after 30 days of treatment (human prostate cancer [1]; 5 months after cessation of treatment, 2AY/2NY 0.5 ml oral daily): 17
- Number of live animals remaining in the groups after 30 days of treatment (human prostate cancer [1]; 6 months after cessation of treatment, 2AY/2NY 0.5 ml oral daily): 0
- mean weight of mice and standard deviation (human prostate cancer [2]): 16.7 ± 1.7 g
- mean weight of tumor nodules and standard deviation (human prostate cancer [2]): 3.3 ± 1.7 g

Structure (SMILES): S=P(N1CC1)(N1CC1)N1CC1 [TSPA, thiotepa]
- mean weight of mice and standard deviation (human prostate cancer [1]; [5]): all animals dead
- mean weight of tumor nodules and standard deviation (human prostate cancer [1]; [5]): all animals dead
- Number of live animals remaining in the groups after 30 days of treatment (human prostate cancer [3]; 0 month after cessation of treatment, 2AY/2NY 0.5 ml oral daily, 2TSPA 2.2 mg/kg/day i.v.): 30
- Number of live animals remaining in the groups after 30 days of treatment (human prostate cancer [3]; 1 month after cessation of treatment, 2AY/2NY 0.5 ml oral daily, 2TSPA 2.2 mg/kg/day i.v.): 30
- survival after six months from injection of tumor cells (human prostate cancer [3]; 2NY 0.5 ml per day, 2TSPA 2.2 mg/kg per day, 30 days): all died
- Number of live animals remaining in the groups after 30 days of treatment (human prostate cancer [3]; 2 months after cessation of treatment, 2AY/2NY 0.5 ml oral daily, 2TSPA 2.2 mg/kg/day i.v.): 30
- Number of live animals remaining in the groups after 30 days of treatment (human prostate cancer [3]; 3 months after cessation of treatment, 2AY/2NY 0.5 ml oral daily, 2TSPA 2.2 mg/kg/day i.v.): 27
- Number of live animals remaining in the groups after 30 days of treatment (human prostate cancer [3]; 4 months after cessation of treatment, 2AY/2NY 0.5 ml oral daily, 2TSPA 2.2 mg/kg/day i.v.): 17
- Number of live animals remaining in the groups after 30 days of treatment (human prostate cancer [3]; 5 months after cessation of treatment, 2AY/2NY 0.5 ml oral daily, 2TSPA 2.2 mg/kg/day i.v.): 5
- Number of live animals remaining in the groups after 30 days of treatment (human prostate cancer [3]; 6 months after cessation of treatment, 2AY/2NY 0.5 ml oral daily, 2TSPA 2.2 mg/kg/day i.v.): 0
- mean weight of mice and standard deviation (human prostate cancer [3]; [6]): all animals dead
- mean weight of tumor nodules and standard deviation (human prostate cancer [3]; [6]): all animals dead
- mean weight of mice and standard deviation (human prostate cancer [4]): 16.2 ± 1.7 g
- mean weight of tumor nodules and standard deviation (human prostate cancer [4]): 2.4 ± 1.2 mg
